Source: patent US5763395A, “Stabilized lanthionine bacteriocin compositions” (Ambi Inc., priority 1995, dated 1998)
“And” between values parts separate entries of the source, which are not always exact repeats. Identical values can stand only once. Each block holds one compound with its values, some of them ahead of it.

Legend:
[1] = Commonly used antioxidants tested for protection of nisin in formulation; type: physicochemical; conditions: methods of Example 2
Description: In order to further analyze the nisin degradation associated with one particular surfactant/emulsifier, polysorbate, material was obtained from as many manufacturers as possible. Where possible, multiple production batches were obtained from each manufacturer. Other emulsifiers or surfactants believed to closely resemble polysorbate in their properties as well as dissimilar surfactants were also tested. An oral rinse formulation containing nisin was prepared using each of these compounds and, after incubation, samples were analyzed to evaluate nisin stability.
A number of commonly used antioxidants were tested for their ability to protect nisin in formulation using the methods described in Example 2. None of the compounds tested gave satisfactory protection of nisin.

[2] = Glycerol/sorbitol batches and chelating agents screened for effects on nisin stability in oral rinse formulations (RPHPLC); type: physicochemical
Description: i) Analytical reverse phase high pressure liquid chromatography (RPHPLC).
Formulations of nisin useful as oral rinses comprising EDTA and the humectant glycerol were also prepared and analyzed by RPHPLC.
Glycerol and sorbitol from a number of sources, and a number of alternative chelators, were screened (Tables 2 and 3).

[3] = Nisin stability in topical germicide formulations under stressed conditions (RPHPLC); conditions: for Residual nisin concentration as a percentage of the theoretical concentration: 5 days 40° C., pH 6, additive 1 mM (nisin = control)
Text: i) Analytical reverse phase high pressure liquid chromatography (RPHPLC). The analyte (nisin) in solution is passed through a column of hydrophic beads to which the nisin tends to bind. The solution flowing through the column is then made progressively more hydrophobic by increasing acetonitrile concentration until it causes the nisin to be released from the beads and eluted from the column. The emergence of the nisin from the column is detected by measuring the absorbance of light at 210 nm by the effluent.
In order to expedite the execution of these experiments the formulations were subjected to "stressed" conditions, ie pH 6 and 40° C.; both intended to accelerate any degradation effects taking place. The stability of nisin in the formulations was evaluated by RPHPLC.
Formulations were prepared with nisin at 25 μg/ml and titrated to pH 6. […]

[4] = T-MAZ 20 BATCH 348, 2 weeks at 40° C., nisin formulated at 25 μg/ml, label nisin = water control
[5] = T-MAZ 20 BATCH 357, 2 weeks at 40° C., nisin formulated at 25 μg/ml, label nisin = water control
[6] = T-MAZ 20 batch 348, EDTA 1 mM, nisin 25 μg/ml, samples jd6-35-H 49-52
[7] = T-MAZ 20 batch 348, citrate 0.1%, nisin 25 μg/ml, samples jd6-35-H 53-56
[8] = T-MAZ 20 batch 348, citrate 0.3%, nisin 25 μg/ml, samples jd6-35-H 57-60
[9] = T-MAZ 20 batch 348, citrate 1.0%, nisin 25 μg/ml, samples jd6-35-H 61-64
[10] = T-MAZ 20 batch 357, EDTA 1 mM, nisin 25 μg/ml, samples jd6-35-H 33-36
[11] = T-MAZ 20 batch 357, citrate 0.1%, nisin 25 μg/ml, samples jd6-35-H 37-40
[12] = T-MAZ 20 batch 357, citrate 0.3%, nisin 25 μg/ml, samples jd6-35-H 41-44
[13] = T-MAZ 20 batch 357, citrate 1.0%, nisin 25 μg/ml, samples jd6-35-H 45-48
[14] = T-MAZ 20 1%, 6 days at 40° C., initial nisin 25 μg/ml, label nisin = no methionine

Structure (SMILES): O=S([O-])[O-].[Na+].[Na+] [sodium sulfite]
Protection of nisin in formulation by antioxidants, in words [1]: aggravated the stability problem

Effect of humectant (glycerol, sorbitol) and chelating agent on nisin stability, in words [2]: superior to EDTA
Structure (SMILES): O=C(O)CC(O)(CC(=O)O)C(=O)O [citrate]

Structure (SMILES): CSCC[C@H](N)C(=O)O [methionine]
Residual nisin concentration [3, 4]: 23.3 µg/mL
Residual nisin concentration [3, 5]: 23.2 µg/mL
Residual nisin concentration as a percentage of the theoretical concentration [3, 6]: 80%
Residual nisin concentration as a percentage of the theoretical concentration [3, 7]: 76%
Residual nisin concentration as a percentage of the theoretical concentration [3, 8]: 73%
Residual nisin concentration as a percentage of the theoretical concentration [3, 9]: 73%
Residual nisin concentration as a percentage of the theoretical concentration [3, 10]: 84%
Residual nisin concentration as a percentage of the theoretical concentration [3, 11]: 75%
Residual nisin concentration as a percentage of the theoretical concentration [3, 12]: 76%
Residual nisin concentration as a percentage of the theoretical concentration [3, 13]: 73%

Protection of nisin in formulation by antioxidants, in words [1]: aggravated the stability problem
Structure (SMILES): O=C1O[C@H]([C@@H](O)CO)C(O)=C1O [ascorbate, ascorbic acid]

Structure (SMILES): COC(=O)C(N)CCSC (racemic) [DL-methionine methyl ester]
Residual nisin concentration [3, 14]: 21.9 µg/mL and 20.8 µg/mL

Structure (SMILES): C[S+]([O-])CCC(N)C(=O)O (racemic) [DL-methionine sulfoxide]
Residual nisin concentration [3, 14]: 8.6 µg/mL

Structure (SMILES): CSCCC(O)C(=O)O (racemic) [MHA, 2-hydroxy-4-(methylthio)butanoic acid]
Residual nisin concentration ([3]; T-MAZ 20 1%, 6 days at 40° C., initial nisin 25 μg/ml, label nisin = no methionine, listed as methionine hydroxy analog (MHA Novus)): 19.8 µg/mL
Residual nisin concentration ([3]; T-MAZ 20 1%, 6 days at 40° C., initial nisin 25 μg/ml, label nisin = no methionine, listed as methionine hydroxy analog (Sigma)): 18.1 µg/mL
Residual nisin concentration [3, 4]: 23.4 µg/mL
Residual nisin concentration [3, 5]: 22.5 µg/mL

Structure (SMILES): NCCCC[C@H](N)C(=O)O [Lys, lysine]
Residual nisin concentration as a percentage of the theoretical concentration [3, 6]: 56%
Residual nisin concentration as a percentage of the theoretical concentration [3, 7]: 45%
Residual nisin concentration as a percentage of the theoretical concentration [3, 8]: 47%
Residual nisin concentration as a percentage of the theoretical concentration [3, 9]: 49%
Residual nisin concentration as a percentage of the theoretical concentration [3, 10]: 80%
Residual nisin concentration as a percentage of the theoretical concentration [3, 11]: 71%
Residual nisin concentration as a percentage of the theoretical concentration [3, 12]: 71%
Residual nisin concentration as a percentage of the theoretical concentration [3, 13]: 71%

Structure (SMILES): N[C@@H](CS(=O)(=O)O)C(=O)O [cysteic acid]
Residual nisin concentration [3, 4]: 9.6 µg/mL
Residual nisin concentration [3, 5]: 19.5 µg/mL

Structure (SMILES): C1CSCN1 [thizaolidine, thiazolidine]
Residual nisin concentration [3, 4]: 14.9 µg/mL
Residual nisin concentration [3, 5]: 17.3 µg/mL
Stabilization of nisin from degradation by sulfur-containing compounds, in words ([3]; nisin 25 μg/ml, T-MAZ 20, propyleneglycol, 1-propanol, EDTA or citrate, pH 6, 40° C.): To a lesser degree, nisin was also stabilized

Structure (SMILES): N[C@@H](CSSC[C@H](N)C(=O)O)C(=O)O [cystine]
Residual nisin concentration [3, 4]: 9.0 µg/mL
Residual nisin concentration [3, 5]: 11.1 µg/mL

Structure (SMILES): CSCC[C@H](N)C(=O)O [L-methionine]
Residual nisin concentration [3, 14]: 19.9 µg/mL

Structure (SMILES): CSCCC(N)C(=O)O (racemic) [DL-methionine]
Residual nisin concentration [3, 14]: 19.7 µg/mL

Structure (SMILES): N[C@@H](CSC[C@H](N)C(=O)O)C(=O)O [lanthionine]
Residual nisin concentration [3, 4]: 10.7 µg/mL
Residual nisin concentration [3, 5]: 18.2 µg/mL

Structure (SMILES): N[C@@H](CS)C(=O)O [CySH, cysteine]
Residual nisin concentration as a percentage of the theoretical concentration [3, 6]: 51%
Residual nisin concentration as a percentage of the theoretical concentration [3, 7]: 36%
Residual nisin concentration as a percentage of the theoretical concentration [3, 8]: 29%
Residual nisin concentration as a percentage of the theoretical concentration [3, 9]: 33%
Residual nisin concentration as a percentage of the theoretical concentration [3, 10]: 85%
Residual nisin concentration as a percentage of the theoretical concentration [3, 11]: 29%
Residual nisin concentration as a percentage of the theoretical concentration [3, 12]: 36%
Residual nisin concentration as a percentage of the theoretical concentration [3, 13]: 31%

Protection of nisin in formulation by antioxidants, in words [1]: aggravated the stability problem
Structure (SMILES): O[C@H](CS)[C@H](O)CS (racemic) [dithiothreitol]

Structure (SMILES): CS(=O)(=O)CCC(N)C(=O)O (racemic) [DL-methionine sulfone]
Residual nisin concentration [3, 14]: 8.6 µg/mL
